As a reminder, the IC50 is the concentration needed to halve the response being measured. The inhibition is the share of the control response that was lost under treatment.

Like-named read-outs stand apart in the source and are kept apart here.

What all share (type): cell-based
Assay [1] concerns naïve CD4+ T cells under Th17-polarizing conditions. Briefly: In vitro mouse Th17 differentiation. The settings on record: for IC50: Mus musculus, CD4+ T. From the text:
(§1) The following antibodies (anti-mouse or anti-human) were purchased from BD Biosciences (San Diego, CA) or eBioscience (San Diego, CA): anti-CD3-FITC (mouse 17A2 and human SK7), anti-CD4-allophycocyanin (APC), anti-CD4-PerCp, anti-CD4-FITC, anti-CD4-PE (mouse GK1.5 and human SK3), anti-CD44-PerCp (mouse IM7), anti-γδ TCR-FITC, anti-γδ TCR-PE (mouse GL3 and human B1), anti-CD62L-FITC (mouse MEL-14 and human SK11), anti-CD45RO-APC (human UCHL1), anti-CCR6-PE (human 11A9), anti-CD45-PerCp (mouse 30-F11). Human or mouse anti-IFNγ (mouse XMG1.2 and human 4S.B3), anti-TNFα (mouse MP6-XT22 and human MAB11), anti-IL-17A (mouse eBio17B7 and human eBio64DEC17), anti-IL-22 (mouse 1H8PWSR and human 22URTI), and anti-Foxp3 (mouse FJK-16s and human 36A/E7), all PE or APC conjugated, were purchased from eBioscience (San Diego, CA). Human and mouse APC conjugated CD1d tetramers pre-loaded with alpha-GalCer and negative controls were obtained from ProImmune. For intracellular staining cells were stimulated for 4 hours at 37 °C with PMA and ionomycin (0.5 μg/ml each) in the presence of brefeldin A and monensin or with leukocyte activation cocktail (BD Bioscience, San Diego, CA). Cells were stained with fluorescence-labeled antibodies for surface marker, then fixed/permeabilized (eBioscience) and stained with antibodies for intracellular cytokines. For Foxp3 staining cells were fixed/permeabilized using transcription factor buffer set (eBioscience). The data were acquired on a FACS Calibur (BD Bioscience) and analyzed using FlowJo software (Tree Star, San Carlos, CA).
Naïve CD4^+ T cells were isolated from splenocytes of C57BL/6N mice using a naïve CD4^+ T cell isolation kit II (Miltenyl Biotec, Auburn, CA), following the manufacturer’s instructions. Cells were resuspended in culture medium (RPMI-1640 medium supplemented with 10% fetal bovine serum, 50 IU/ml penicillin, 50 μg/ml streptomycin, 2 mM glutamine, and 55 μM β-mercaptoethanol), and were added to 96-well plates at 2 × 10^5 per well. […] Cells were incubated for 1 hour, after which Th17 cell differentiation medium was added with final concentrations of 1 μg/ml anti-CD3, 5 μg/mL anti-CD28 (BD Pharmingen, San Diego, CA), 10 μg/ml anti-IL-4, 10 μg/ml anti-IFNγ, 10 ng/mL IL-23, 10 ng/mL IL-6, and 10 ng/ml TGFβ (R&D Systems, Minneapolis, MN). Cells were cultured at 37 °C and 5% CO2 for 3 days. Supernatants were collected and the accumulated cytokines in culture were measured by ELISA kits (R&D Systems, Minneapolis, MN) following manufacturers’ instructions. Cells were harvested for staining and flow cytometry analysis.

Assay [2] concerns human γδ+ T cells in PBMCs. Briefly: Human γδ+ T cell in vitro activation. The settings on record: 168 h, IL-1β, IL-23 and IPP, 7 days, average, read-out: inhibition of the IL-17A+ γδ+ T cell population.
From the text: as §1, with “For intracellular staining cells were stimulated for 4 hours at 37 °C with PMA and ionomycin (0.5 μg/ml each) in the presence of brefeldin A and monensin or with leukocyte activation cocktail (BD Bioscience, San Diego, CA).” left out, “For Foxp3 staining cells were fixed/permeabilized using transcription factor buffer set (eBioscience).” left out
Human γδ^+ T cells were analyzed only through flow cytometry. […]

For a further assay, the system named is mouse iNKT cells. Description: Mouse NKT cell in vitro activation. Particulars: IL-1β/IL-23 plus anti-IFNγ, 4 days, 1 μM. From the text: The following antibodies (anti-mouse or anti-human) were purchased from BD Biosciences (San Diego, CA) or eBioscience (San Diego, CA): anti-CD3-FITC (mouse 17A2 and human SK7), anti-CD4-allophycocyanin (APC), anti-CD4-PerCp, anti-CD4-FITC, anti-CD4-PE (mouse GK1.5 and human SK3), anti-CD44-PerCp (mouse IM7), anti-γδ TCR-FITC, anti-γδ TCR-PE (mouse GL3 and human B1), anti-CD62L-FITC (mouse MEL-14 and human SK11), anti-CD45RO-APC (human UCHL1), anti-CCR6-PE (human 11A9), anti-CD45-PerCp (mouse 30-F11). […] Cells were stained with fluorescence-labeled antibodies for surface marker, then fixed/permeabilized (eBioscience) and stained with antibodies for intracellular cytokines. […] The data were acquired on a FACS Calibur (BD Bioscience) and analyzed using FlowJo software (Tree Star, San Carlos, CA).
Single cell suspension was generated from mouse mesenteric lymph-nodes. […] NKT cells were identified among total live cells using anti-CD3 and mouse conjugated CD1d-tetramer pre-loaded with alpha-GalCer, and cytokine-producing NKT cells were analyzed through intracellular staining. […]

For another assay, the target named is T1, RORα (Homo sapiens, UniProt P35398).
T1 construct: NP_599022, aa 305–556; expressed in transfected cells; host or cells: HEK293T
Description: 1-hybrid reporter assay in HEK293T cells (GAL4-RORα). Particulars: HEK-293T. As to the method:
(§2) The reporter assay was performed by transient co-transfection of HEK293T cells with pCMV-BD (Stratagene #211342) containing the GAL4 DNA-binding domain fused with full-length human RORγt (Genbank accession no. NP_001001523, aa 1–497), pFR-Luc reporter and pRL-CMV reporter (Promega #E2261) plus Carrier DNA (Clontech # 630440) using PEI solution (Sigma Aldrich cat# 40872-7) in a 96-well plate. […] Medium was removed and cells were lysed with Passive Lysis Buffer (Promega). Firefly luciferase buffer was then added and firefly luciferase luminescence was read on BMG LUMIstar OPTIMA luminescence plate reader. One second later, renilla luciferase buffer was then added and renilla luciferase luminescence was read to measure cell viability. For RORα and RORβ activity, similar assays were performed except cells were transfected with pCMV-BD-RORα (Genbank accession no. NP_599022, aa 305–556) or pCMV-BD-RORβ (Genbank accession no. NP_008845, aa 201–459).
In general terms: A reporter such as luciferase makes a cellular process visible.

The next assay concerns the target T2, RORβ (Homo sapiens, UniProt Q92753).
T2 construct: NP_008845, aa 201–459; expressed in transfected cells; host or cells: HEK293T
Briefly: 1-hybrid reporter assay in HEK293T cells (GAL4-RORβ). The settings on record: HEK-293T. The procedure: as §2

Assay [3] has as its system human CD4+ CD45RO+ CCR6+ T cells. Briefly: Human memory CCR6+ T cells in vitro activation.
From the text: as §1
Human blood samples from healthy donors were provided by the Scripps Research Institute, La Jolla following Institutional Review Board approved protocol. Total CD4^+ T cells were isolated from the peripheral blood mononuclear cells (PBMCs) using a CD4^+ T cell Isolation Kit II (Miltenyl Biotec, Auburn, CA), following the manufacturer’s instructions. CCR6^+ cells were isolated from CD4^+ T cells using phycoerythrin (PE) conjugated anti-CCR6 antibody followed by anti-PE microbeads. Isolated CCR6^+ T cells were resuspended in culture medium and added to a 96-well plate which was pre-coated with 1 μg/ml anti-CD3 (BD Bioscience) at 1 × 10^5 cells per well. […] Cells were cultured at 37 °C and 5% CO2 for 6 days. Supernatants were assayed for accumulated cytokines using MSD multi-spot assay (Meso Scale Discovery, Rockville, MD) or R&D ELISA kit, and cells were used for intracellular staining.

T2 sequence (Q92753 212-470): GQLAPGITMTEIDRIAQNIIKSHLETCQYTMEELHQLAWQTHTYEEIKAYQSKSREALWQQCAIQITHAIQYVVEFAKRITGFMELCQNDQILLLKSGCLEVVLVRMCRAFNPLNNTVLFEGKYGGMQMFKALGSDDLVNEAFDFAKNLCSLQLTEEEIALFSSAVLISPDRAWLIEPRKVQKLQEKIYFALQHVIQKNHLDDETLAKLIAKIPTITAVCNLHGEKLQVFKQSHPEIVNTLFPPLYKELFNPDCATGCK
T1 sequence (P35398 272-523): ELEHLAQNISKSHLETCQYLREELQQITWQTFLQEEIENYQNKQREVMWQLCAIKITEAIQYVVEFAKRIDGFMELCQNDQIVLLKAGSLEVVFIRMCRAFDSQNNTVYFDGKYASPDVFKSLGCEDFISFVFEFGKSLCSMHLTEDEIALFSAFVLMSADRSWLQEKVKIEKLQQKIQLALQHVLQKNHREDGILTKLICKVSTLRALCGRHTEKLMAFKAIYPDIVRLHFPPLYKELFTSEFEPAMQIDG

Consider `COc1nc2ccc([C@@](O)(c3ccc(C)nc3C)c3cnnn3C)cc2c(Cl)c1Cc1ccc(C(F)(F)F)cc1` [JNJ-54271074], for which the IL-17A-producing cells entry in assay [1] (1 μM, flow cytometry) was “almost completely abolished”. Moreover, the IC50 was 17 nM in assay [1] (Th17-polarizing condition, supernatant, read-out: IC50, IL-17A production); 21 nM in assay [1] (flow cytometry, read-out: IC50, total IL-17A-producing cells); 4000 nM against RORα; over 10000 nM at RORβ. The TNFα production result in assay [1] (Th17-polarizing condition, supernatant) was “did not inhibit”. Besides, the inhibition at 1 µM in assay [2] is 56%; in assay [3] (Homo sapiens, T-cell, vs DMSO control, non-polarizing activation, read-out: inhibition of IL-17A production), 77%. For the same molecule, the “IL-17A production by mouse iNKT cells” value in the assay with mouse iNKT cells is on record as “suppressed”. Also, the IFNγ production result in assay [3] (1 μM) is “slightly increasing”. Besides, the “IL-22, TNFα and GM-CSF production” value in assay [3] (1 μM) is recorded as “trend of decreasing”. In assay [3] (1 μM), the “increase of IL-10 production over the control” value was determined as 49%. Further, the “number of IL-17A-producing cells (single- and double-positive)” value in assay [3] (1 μM, flow cytometry) is “significantly decreased”.

Source of the values: PMC5131364, “Pharmacologic modulation of RORγt translates to efficacy in preclinical and translational models of psoriasis and inflammatory arthritis” (Scientific Reports, 2016).
